This note sets out measurements from ChEMBL document CHEMBL5705888, “Substrate specificity and inhibitors of LRRK2, a protein kinase mutated in Parkinson's disease” (Biochem J, 2009).

The target in experiment [1] is Insulin-like growth factor 1 receptor (Homo sapiens) (UniProt P08069). The experiment in a line: Inhibition of IGF-1R (unknown origin) at 1 uM incubated for 30 mins in presence of [gamma-33P]ATP by multidrop micro reagent based assay relative to control; values are per cent of control.
Experiment [2] deals with Ribosomal protein S6 kinase alpha-3 (Homo sapiens) (UniProt P51812). Kind of experiment: Inhibition of RSK2 (unknown origin) at 1 uM incubated for 30 mins in presence of [gamma-33P]ATP by multidrop micro reagent based assay relative to control; values are per cent of control.
In experiment [3] the target is T1, Protein kinase C zeta type (Homo sapiens) (UniProt Q05513).
T1 sequence (whole entry): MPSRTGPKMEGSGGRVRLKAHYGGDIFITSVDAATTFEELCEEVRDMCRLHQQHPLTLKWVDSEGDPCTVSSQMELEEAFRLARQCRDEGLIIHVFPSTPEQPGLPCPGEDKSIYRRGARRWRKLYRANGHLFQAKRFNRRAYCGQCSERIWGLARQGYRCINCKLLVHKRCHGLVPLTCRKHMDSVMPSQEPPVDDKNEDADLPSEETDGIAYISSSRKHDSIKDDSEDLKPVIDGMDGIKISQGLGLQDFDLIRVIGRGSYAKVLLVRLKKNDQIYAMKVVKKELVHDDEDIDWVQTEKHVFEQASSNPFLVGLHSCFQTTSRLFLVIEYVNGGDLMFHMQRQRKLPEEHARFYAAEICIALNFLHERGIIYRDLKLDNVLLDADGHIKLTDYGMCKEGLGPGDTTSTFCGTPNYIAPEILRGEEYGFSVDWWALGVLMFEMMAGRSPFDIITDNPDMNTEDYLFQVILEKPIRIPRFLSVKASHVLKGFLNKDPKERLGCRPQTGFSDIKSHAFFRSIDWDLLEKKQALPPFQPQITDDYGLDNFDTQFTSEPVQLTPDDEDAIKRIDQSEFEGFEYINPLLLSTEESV
Kind of experiment: Inhibition of PKCzeta (unknown origin) at 1 uM incubated for 30 mins in presence of [gamma-33P]ATP by multidrop micro reagent based assay relative to control; values are per cent of control.

Experiment [4] has as its target Glycogen synthase kinase-3 beta (Homo sapiens) (UniProt P49841). The experiment in a line: Inhibition of GSK3beta (unknown origin) at 1 uM incubated for 30 mins in presence of [gamma-33P]ATP by multidrop micro reagent based assay relative to control; values are per cent of control.
Experiment [5] addresses Fibroblast growth factor receptor 1 (Homo sapiens) (UniProt P11362). The experiment in a line: Inhibition of FGFR1 (unknown origin) at 1 uM incubated for 30 mins in presence of [gamma-33P]ATP by multidrop micro reagent based assay relative to control.
Experiment [6] has as its target Ribosomal protein S6 kinase beta-1 (Homo sapiens) (UniProt P23443). The experiment in a line: Inhibition of S6K1 (unknown origin) at 1 uM incubated for 30 mins in presence of [gamma-33P]ATP by multidrop micro reagent based assay relative to control; values are per cent of control.
Experiment [7] addresses T2, Mitogen-activated protein kinase 12 (Homo sapiens) (UniProt P53778).
T2 sequence (whole entry): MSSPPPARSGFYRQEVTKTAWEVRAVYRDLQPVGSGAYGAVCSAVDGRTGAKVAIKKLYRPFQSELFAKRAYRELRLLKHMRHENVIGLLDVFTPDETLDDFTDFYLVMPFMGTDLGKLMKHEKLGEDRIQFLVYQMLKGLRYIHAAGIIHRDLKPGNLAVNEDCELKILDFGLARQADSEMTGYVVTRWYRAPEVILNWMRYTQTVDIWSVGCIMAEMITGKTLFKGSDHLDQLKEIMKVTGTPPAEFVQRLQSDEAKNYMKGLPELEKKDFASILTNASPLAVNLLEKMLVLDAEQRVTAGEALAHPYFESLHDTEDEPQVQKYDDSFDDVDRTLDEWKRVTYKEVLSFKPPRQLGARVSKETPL
Kind of experiment: Inhibition of p38gamma MAPK (unknown origin) at 1 uM incubated for 30 mins in presence of [gamma-33P]ATP by multidrop micro reagent based assay relative to control; values are per cent of control.

Experiment [8] has as its target Rho-associated protein kinase 2 (Homo sapiens, UniProt O75116). The experiment in a line: Inhibition of ROCK2 (unknown origin) at 1 uM incubated for 30 mins in presence of [gamma-33P]ATP by multidrop micro reagent based assay relative to control; values are per cent of control.
For experiment [9], the target named is Mitogen-activated protein kinase 8 (Homo sapiens) (UniProt P45983). The experiment in a line: Inhibition of JNK1 (unknown origin) at 1 uM incubated for 30 mins in presence of [gamma-33P]ATP by multidrop micro reagent based assay relative to control; values are per cent of control.
The target of experiment [10] is T3, Dual specificity tyrosine-phosphorylation-regulated kinase 2 (Homo sapiens) (UniProt Q92630).
T3 sequence (whole entry): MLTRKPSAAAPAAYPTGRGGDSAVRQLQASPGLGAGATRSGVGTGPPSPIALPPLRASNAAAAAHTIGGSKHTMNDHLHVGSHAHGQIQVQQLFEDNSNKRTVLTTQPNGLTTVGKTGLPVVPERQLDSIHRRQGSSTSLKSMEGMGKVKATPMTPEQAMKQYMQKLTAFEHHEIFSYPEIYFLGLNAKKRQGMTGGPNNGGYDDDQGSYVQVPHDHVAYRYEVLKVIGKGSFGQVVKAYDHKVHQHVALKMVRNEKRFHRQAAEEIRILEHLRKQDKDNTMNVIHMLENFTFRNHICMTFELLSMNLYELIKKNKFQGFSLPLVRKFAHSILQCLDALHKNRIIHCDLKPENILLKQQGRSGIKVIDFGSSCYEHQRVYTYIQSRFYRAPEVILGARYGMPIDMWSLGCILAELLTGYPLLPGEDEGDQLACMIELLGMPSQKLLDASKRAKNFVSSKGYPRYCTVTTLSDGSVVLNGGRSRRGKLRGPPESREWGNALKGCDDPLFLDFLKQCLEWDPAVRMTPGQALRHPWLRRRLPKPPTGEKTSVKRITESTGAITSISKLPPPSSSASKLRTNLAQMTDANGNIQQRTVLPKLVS
Kind of experiment: Inhibition of DYRK2 (unknown origin) at 1 uM incubated for 30 mins in presence of [gamma-33P]ATP by multidrop micro reagent based assay relative to control; values are per cent of control.

In experiment [11] the target is RAC-alpha serine/threonine-protein kinase (Homo sapiens) (UniProt P31749). The experiment in a line: Inhibition of PKBalpha (unknown origin) at 1 uM incubated for 30 mins in presence of [gamma-33P]ATP by multidrop micro reagent based assay relative to control; values are per cent of control.
Experiment [12] deals with Serine/threonine-protein kinase pim-3 (Homo sapiens) (UniProt Q86V86). Kind of experiment: Inhibition of PIM3 (unknown origin) at 1 uM incubated for 30 mins in presence of [gamma-33P]ATP by multidrop micro reagent based assay relative to control; values are per cent of control.

Sequence of RAC-alpha serine/threonine-protein kinase (Homo sapiens) (P31749 whole entry): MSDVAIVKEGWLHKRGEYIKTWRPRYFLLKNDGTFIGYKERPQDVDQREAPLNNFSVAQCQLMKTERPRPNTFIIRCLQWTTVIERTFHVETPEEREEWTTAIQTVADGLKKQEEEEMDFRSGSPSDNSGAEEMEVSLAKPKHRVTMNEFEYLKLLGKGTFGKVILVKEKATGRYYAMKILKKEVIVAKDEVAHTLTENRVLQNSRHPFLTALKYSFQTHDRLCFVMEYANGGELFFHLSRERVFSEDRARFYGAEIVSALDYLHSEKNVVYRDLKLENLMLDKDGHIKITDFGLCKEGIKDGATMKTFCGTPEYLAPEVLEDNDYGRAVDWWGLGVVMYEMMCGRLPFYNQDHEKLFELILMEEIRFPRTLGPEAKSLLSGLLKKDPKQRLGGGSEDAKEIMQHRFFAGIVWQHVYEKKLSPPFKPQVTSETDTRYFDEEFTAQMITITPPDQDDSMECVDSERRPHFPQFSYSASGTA
Sequence of Fibroblast growth factor receptor 1 (Homo sapiens) (P11362 22-822 limits assumed): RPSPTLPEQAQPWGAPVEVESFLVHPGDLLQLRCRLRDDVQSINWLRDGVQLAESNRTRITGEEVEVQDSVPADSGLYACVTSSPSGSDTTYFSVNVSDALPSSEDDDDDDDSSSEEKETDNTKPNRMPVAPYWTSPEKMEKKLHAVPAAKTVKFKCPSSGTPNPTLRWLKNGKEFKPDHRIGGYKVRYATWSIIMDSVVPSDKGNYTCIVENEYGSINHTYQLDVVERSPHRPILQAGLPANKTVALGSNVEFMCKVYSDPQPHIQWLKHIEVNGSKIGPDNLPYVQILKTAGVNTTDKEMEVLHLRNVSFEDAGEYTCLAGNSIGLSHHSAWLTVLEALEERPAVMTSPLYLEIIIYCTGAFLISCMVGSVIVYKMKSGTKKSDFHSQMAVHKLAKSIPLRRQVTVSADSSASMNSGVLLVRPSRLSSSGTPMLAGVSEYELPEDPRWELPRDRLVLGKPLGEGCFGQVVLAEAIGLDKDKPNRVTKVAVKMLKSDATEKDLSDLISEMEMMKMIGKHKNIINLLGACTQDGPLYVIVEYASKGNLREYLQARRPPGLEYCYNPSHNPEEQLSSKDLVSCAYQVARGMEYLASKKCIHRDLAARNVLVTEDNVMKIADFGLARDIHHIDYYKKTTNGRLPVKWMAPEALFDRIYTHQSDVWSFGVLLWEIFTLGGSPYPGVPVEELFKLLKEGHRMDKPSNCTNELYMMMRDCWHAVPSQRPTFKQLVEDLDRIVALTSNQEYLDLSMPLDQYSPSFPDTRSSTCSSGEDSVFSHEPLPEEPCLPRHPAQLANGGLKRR
Sequence of Glycogen synthase kinase-3 beta (Homo sapiens) (P49841 whole entry, looked up): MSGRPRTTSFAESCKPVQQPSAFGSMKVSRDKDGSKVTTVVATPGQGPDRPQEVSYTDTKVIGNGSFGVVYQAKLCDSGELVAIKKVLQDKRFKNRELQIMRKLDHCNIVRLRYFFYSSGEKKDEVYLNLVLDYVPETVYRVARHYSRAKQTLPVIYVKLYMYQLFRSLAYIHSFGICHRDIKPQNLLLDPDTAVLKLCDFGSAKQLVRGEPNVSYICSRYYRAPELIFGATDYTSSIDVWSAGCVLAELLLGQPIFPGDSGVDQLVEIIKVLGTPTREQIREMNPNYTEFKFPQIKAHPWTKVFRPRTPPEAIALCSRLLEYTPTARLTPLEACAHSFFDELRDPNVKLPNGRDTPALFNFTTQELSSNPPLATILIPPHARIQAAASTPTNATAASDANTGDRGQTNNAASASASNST
Sequence of Rho-associated protein kinase 2 (O75116 whole entry, looked up): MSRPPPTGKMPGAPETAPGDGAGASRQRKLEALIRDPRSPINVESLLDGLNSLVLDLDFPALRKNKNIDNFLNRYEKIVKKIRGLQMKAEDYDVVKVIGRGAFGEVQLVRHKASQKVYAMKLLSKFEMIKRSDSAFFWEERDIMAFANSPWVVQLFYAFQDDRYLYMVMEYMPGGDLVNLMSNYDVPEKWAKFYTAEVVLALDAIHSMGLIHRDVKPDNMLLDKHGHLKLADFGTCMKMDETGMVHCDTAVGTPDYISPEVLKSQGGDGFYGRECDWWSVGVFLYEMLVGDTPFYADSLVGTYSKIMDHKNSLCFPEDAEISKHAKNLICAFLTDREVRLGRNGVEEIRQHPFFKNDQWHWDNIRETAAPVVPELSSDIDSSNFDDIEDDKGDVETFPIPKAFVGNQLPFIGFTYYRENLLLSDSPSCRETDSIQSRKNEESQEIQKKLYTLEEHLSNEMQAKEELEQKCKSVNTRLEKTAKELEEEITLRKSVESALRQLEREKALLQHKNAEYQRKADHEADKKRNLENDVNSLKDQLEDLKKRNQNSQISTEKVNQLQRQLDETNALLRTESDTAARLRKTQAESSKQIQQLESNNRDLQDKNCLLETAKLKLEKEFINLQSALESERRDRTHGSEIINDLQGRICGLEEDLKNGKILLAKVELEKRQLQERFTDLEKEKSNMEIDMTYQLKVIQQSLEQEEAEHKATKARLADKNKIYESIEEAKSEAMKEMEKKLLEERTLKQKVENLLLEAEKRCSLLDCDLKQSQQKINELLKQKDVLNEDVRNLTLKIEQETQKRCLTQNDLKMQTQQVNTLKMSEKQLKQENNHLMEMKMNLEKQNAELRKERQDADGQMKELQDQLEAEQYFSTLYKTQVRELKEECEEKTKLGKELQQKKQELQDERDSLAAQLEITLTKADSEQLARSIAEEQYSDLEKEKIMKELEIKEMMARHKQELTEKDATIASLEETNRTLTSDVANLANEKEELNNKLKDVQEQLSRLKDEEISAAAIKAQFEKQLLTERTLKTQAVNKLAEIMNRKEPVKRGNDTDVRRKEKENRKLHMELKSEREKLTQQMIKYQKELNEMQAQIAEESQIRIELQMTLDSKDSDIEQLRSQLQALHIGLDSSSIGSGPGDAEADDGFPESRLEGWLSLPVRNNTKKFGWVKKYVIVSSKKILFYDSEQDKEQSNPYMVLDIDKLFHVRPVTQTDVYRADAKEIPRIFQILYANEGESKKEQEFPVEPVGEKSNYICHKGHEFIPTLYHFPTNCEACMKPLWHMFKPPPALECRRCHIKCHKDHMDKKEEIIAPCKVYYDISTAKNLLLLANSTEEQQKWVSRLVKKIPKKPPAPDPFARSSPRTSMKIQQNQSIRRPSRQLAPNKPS
Sequence of Ribosomal protein S6 kinase beta-1 (Homo sapiens) (P23443 whole entry, looked up): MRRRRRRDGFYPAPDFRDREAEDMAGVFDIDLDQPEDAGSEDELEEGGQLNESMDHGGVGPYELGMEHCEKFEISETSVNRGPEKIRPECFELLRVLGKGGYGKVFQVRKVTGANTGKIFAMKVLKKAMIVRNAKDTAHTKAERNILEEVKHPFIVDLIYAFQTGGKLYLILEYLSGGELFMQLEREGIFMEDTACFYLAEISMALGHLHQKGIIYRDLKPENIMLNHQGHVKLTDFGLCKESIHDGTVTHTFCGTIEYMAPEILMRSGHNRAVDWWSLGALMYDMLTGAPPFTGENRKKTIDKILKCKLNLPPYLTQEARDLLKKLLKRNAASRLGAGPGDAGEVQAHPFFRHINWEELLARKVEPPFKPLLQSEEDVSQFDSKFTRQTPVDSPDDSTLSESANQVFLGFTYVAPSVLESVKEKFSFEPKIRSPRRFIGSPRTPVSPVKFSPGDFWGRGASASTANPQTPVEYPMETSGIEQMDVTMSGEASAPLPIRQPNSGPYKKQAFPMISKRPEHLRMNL
Sequence of Mitogen-activated protein kinase 8 (Homo sapiens) (P45983 whole entry): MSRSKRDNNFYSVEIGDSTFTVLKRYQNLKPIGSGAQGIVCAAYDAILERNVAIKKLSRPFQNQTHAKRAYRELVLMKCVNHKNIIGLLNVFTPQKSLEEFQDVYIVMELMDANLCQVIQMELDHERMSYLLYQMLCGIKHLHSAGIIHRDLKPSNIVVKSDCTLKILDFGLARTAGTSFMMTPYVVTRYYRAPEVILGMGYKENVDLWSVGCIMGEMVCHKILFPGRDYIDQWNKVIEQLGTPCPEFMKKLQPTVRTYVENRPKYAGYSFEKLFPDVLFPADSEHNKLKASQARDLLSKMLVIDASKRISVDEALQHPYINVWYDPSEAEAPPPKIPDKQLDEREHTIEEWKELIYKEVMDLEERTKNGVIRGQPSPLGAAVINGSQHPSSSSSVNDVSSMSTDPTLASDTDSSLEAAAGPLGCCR

Broadly, the inhibition is the relative decrease from the control value, in per cent. Take `Cc1cncc2cccc(S(=O)(=O)N3CCCNC[C@@H]3C)c12`: the residual activity worked out at 113% in experiment [1]; 76% in experiment [2]; 86% in experiment [3]; 72% in experiment [4]; 72% in [6]; 101% in [7]. Moreover, the residual activity in [8] was found to be 3%; in experiment [9] it was 96%; in experiment [10] it was 84%; in [11], 64%. Further, in [5], the inhibition is 35%.
For the molecule `CCn1c(-c2nonc2N)nc2cnc(Oc3cccc(NC(=O)c4ccc(OCCN5CCOCC5)cc4)c3)cc21` [GSK-269962A], the residual activity in experiment [1] was found to be 104%; in experiment [12] it was 35%; in experiment [2], 24%; in experiment [3], 5%; in [4], 12%; in [6] it was 2%. The residual activity in experiment [7] came out at 72%; in experiment [8] it was 1%; in experiment [9], 105%; in [10], 64%; in [11], 26%.
Turning to `CCN(CC)CCNC(=O)c1c(C)[nH]c(/C=C2\C(=O)Nc3ccc(F)cc32)c1C`, the residual activity in experiment [12] came to 50%; in experiment [2], 41%; in experiment [8] it was 67%; in experiment [11], 73%. Further, the inhibition in experiment [5] amounted to 29%.
`CC1=C(C(=O)Nc2cc3cn[nH]c3cc2F)C(c2ccc(C(F)(F)F)cc2)CC(=O)N1` (centres undefined): the residual activity in experiment [1] is 97%; in experiment [12] it was 89%; in experiment [2], 48%; in [3], 81%; in experiment [4], 93%; in experiment [6], 24%. For the same molecule, the residual activity stood at 112% in experiment [7]; 3% in [8]; 111% in experiment [9]; 92% in [10]; 72% in experiment [11]. In addition, the inhibition in [5] worked out at 95%.
